Assay [1] concerns the target CDK4/D1 (Homo sapiens, UniProt P11802). Briefly: ADP Glo Kinase assay CDK4/D1. It is filed as biochemical. The following applies: CDK4D1; compound at 10 μM; read-out: residual activity (%) at 10 μM CDK4D1. Put shortly:
(§1)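 CDK4/D1 and CDK6/D3 were run in […] Tris pH 7.5, 20 mM MgCl2, 0.4 mM DTT, 0.1 mg/ml BSA with RB-CTF substrate; CDK9/T1 used RBER-IRStide. ATP-started reactions ran 40 min at 37° C, with ADP Glo luminescence read-out. IC50 came from 4-parameter fits; Ki from Km (ATP) and IC50.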

Assay [2] deals with CDK6/D3 (Homo sapiens, UniProt Q00534). Put plainly: ADP Glo Kinase assay CDK6/D3. It is filed as biochemical. Conditions: CDK6D3; compound at 10 μM; read-out: residual activity (%) at 10 μM CDK6D3. Put shortly: as §1
Background: ADP-Glo turns the ADP formed in a reaction into a luminescent signal.

Assay [3] addresses CDK9/T1 (Homo sapiens, UniProt P50750). Briefly: ADP Glo Kinase assay CDK9/T1. Conditions: CDK9T1; read-out: CDK inhibition, Ki (μM) CDK9T1. The format is biochemical. Put shortly:
(§2)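 Other CDKs and further kinases were profiled externally by radiometric assay. In-house ADP Glo assays covered CDK4/D1 and CDK6/D3 (RB-CTF substrate, pH 7.5 Tris buffer with MgCl2, DTT, BSA) and CDK9/T1 (RBER-IRStide substrate), 40 min at 37° C.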

Assay [4] concerns the target T1, CDKs and other kinases (Homo sapiens, UniProt P06493).
T1 construct: other: CDK1B; residual activity (%) at 10 μM CDK1B; compound at 10 μM
Briefly: Radiometric kinase assay (Eurofins Pharma Discovery or Reaction Biology Corporation Kinase Profiler). The following applies: CDK1B; for Ki: read-out: CDK inhibition, Ki (μM) CDK1B; for remaining activity at 10 µM: compound at 10 μM, read-out: residual activity (%) at 10 μM CDK1B. The format is biochemical. Put shortly:
as §2

Assay [5] deals with T2, CDKs and other kinases (Homo sapiens, UniProt P24941).
T2 construct: other: CDK2A; residual activity (%) at 10 μM CDK2A; compound at 10 μM
The description is as above. Conditions: CDK2A; for Ki: read-out: CDK inhibition, Ki (μM) CDK2A; for remaining activity at 10 µM: compound at 10 μM, read-out: residual activity (%) at 10 μM CDK2A. The format is biochemical. Put shortly: as §2

The target in assay [6] is T3, CDKs and other kinases (Homo sapiens, UniProt P50613).
T3 construct: other: CDK7H; residual activity (%) at 10 μM CDK7H; compound at 10 μM
The assay is described as above. It is filed as biochemical. The following applies: CDK7H; for Ki: read-out: CDK inhibition, Ki (μM) CDK7H; for remaining activity at 10 µM: compound at 10 μM, read-out: residual activity (%) at 10 μM CDK7H. The method, boiled down: as §2

Assay [7] has as its system leukemia cell lines. Put plainly: Resazurin cell viability assay on leukemia cell lines (72 h growth inhibition, GI50). It is filed as cell-based. The following applies: Homo sapiens, MV4-11 cells. The method, boiled down: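 Solid tumour cells: MTT. Leukaemia cells: resazurin. GI50 fitted by non-linear regression.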

T3 sequence (P50613 whole entry): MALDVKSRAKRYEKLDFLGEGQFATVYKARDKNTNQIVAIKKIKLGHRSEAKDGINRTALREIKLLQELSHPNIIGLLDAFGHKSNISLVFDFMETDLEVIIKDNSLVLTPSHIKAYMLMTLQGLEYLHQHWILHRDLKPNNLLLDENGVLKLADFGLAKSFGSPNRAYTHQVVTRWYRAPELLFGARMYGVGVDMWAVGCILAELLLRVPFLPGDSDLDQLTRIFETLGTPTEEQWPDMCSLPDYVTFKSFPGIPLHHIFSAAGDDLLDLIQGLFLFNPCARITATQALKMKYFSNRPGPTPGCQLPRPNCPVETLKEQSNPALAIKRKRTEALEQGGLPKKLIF
Chain of CDK9/T1 (P50750 whole entry): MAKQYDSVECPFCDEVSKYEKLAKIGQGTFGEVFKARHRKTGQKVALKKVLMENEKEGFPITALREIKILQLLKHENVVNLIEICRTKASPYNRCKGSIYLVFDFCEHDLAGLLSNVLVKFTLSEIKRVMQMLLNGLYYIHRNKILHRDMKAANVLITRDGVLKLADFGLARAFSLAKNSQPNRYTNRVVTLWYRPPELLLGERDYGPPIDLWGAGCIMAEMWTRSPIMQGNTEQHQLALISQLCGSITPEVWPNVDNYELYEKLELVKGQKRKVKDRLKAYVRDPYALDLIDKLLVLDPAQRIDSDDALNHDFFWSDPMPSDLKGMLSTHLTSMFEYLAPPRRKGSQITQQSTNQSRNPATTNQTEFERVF
Chain of CDK9/T1 (O60563 whole entry partner): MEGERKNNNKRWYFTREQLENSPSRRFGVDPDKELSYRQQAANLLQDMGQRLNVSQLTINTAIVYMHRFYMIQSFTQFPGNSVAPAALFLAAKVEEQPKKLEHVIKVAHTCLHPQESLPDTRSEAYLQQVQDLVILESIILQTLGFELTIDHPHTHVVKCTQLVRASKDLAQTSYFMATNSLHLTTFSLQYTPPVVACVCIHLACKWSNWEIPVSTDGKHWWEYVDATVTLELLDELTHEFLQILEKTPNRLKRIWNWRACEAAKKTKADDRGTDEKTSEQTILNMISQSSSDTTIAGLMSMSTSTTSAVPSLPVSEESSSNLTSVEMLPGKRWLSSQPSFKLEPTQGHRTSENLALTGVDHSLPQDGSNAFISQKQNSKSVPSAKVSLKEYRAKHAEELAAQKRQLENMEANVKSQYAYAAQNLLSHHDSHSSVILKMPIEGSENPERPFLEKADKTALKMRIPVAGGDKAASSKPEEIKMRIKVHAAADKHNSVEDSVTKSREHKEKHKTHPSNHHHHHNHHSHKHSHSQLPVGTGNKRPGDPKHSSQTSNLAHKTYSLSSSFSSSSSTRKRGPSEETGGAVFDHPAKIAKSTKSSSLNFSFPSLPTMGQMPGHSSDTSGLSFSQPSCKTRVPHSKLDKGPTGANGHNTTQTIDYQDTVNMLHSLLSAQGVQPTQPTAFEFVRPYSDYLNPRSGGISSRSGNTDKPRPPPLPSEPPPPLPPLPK
Chain of CDK4/D1 (P11802 whole entry): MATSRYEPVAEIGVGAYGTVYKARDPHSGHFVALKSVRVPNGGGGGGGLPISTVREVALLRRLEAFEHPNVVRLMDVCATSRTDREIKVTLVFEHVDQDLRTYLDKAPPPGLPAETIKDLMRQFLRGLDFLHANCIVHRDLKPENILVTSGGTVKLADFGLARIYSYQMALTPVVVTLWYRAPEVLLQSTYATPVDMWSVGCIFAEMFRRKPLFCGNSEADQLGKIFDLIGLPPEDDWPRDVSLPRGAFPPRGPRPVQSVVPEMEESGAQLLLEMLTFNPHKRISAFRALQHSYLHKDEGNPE
Chain of CDK4/D1 (P24385 whole entry partner): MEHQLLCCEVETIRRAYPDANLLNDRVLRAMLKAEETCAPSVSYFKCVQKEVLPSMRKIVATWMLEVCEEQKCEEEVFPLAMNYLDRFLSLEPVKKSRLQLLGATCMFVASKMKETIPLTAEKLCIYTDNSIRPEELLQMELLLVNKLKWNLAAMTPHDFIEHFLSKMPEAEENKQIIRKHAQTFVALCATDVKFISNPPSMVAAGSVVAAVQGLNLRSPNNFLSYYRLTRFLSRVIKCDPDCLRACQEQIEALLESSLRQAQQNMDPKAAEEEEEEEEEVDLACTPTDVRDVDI
T1 sequence (P06493 whole entry): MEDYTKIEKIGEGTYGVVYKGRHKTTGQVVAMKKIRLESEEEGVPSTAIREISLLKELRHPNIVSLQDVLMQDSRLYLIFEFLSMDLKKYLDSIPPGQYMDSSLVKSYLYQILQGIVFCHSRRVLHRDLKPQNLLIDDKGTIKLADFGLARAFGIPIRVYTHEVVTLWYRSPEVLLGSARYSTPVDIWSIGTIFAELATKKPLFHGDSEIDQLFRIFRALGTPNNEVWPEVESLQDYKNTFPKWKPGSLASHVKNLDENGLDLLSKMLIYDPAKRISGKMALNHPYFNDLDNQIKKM
Chain of CDK6/D3 (Q00534 whole entry): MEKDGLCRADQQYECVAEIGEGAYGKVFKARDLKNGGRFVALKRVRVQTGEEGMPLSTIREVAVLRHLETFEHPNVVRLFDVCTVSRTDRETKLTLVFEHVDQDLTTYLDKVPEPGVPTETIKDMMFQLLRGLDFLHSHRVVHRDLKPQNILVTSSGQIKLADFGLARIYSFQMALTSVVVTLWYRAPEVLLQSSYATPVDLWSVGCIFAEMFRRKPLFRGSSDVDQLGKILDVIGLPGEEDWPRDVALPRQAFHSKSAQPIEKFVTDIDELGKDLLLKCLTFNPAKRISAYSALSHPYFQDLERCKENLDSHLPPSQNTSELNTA
Chain of CDK6/D3 (P30281 whole entry partner): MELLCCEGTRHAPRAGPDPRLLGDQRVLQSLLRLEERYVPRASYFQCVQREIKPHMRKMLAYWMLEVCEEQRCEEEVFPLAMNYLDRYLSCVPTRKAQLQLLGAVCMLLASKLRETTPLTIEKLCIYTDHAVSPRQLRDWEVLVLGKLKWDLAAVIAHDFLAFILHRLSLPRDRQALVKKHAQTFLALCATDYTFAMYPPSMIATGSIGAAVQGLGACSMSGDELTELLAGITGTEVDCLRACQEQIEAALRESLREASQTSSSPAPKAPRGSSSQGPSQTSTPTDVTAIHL

Turning to `N[C@H]1CC[C@H](Nc2ncc(Cl)c(-c3cnc4ccc(-c5ncccc5F)cn34)n2)CC1` [Compound 40, (1r,4r)-N^1-(5-Chloro-4-(6-(3-fluoropyridin-2-yl)imidazo [1,2-a]pyridin-3-yl)pyrimidin-2-yl)cyclohexane-1,4-diamine], the results for the remaining activity at 10 µM in assay [1] and in assay [2] were 30% and 72%, respectively. In addition, the Ki in assay [3] came to 0.014 µM; in assay [4], 0.88 µM; in assay [5] it was 0.73 µM; in assay [6], 0.038 µM. In assay [7], this compound came in with a 50% growth inhibitory concentration (GI50) of 0.005 ± 0.001 µM.

Regarding `N[C@H]1CC[C@H](Nc2ncc(Cl)c(-c3cnc4ccc(NCc5ccc(F)cc5)cn34)n2)CC1` [Compound 41, (1r,4r)-N^1-(5-Chloro-4-(6-((4-fluorobenzyl)amino)imidazo[1,2-a]pyridin-3-yl)pyrimidin-2-yl)cyclohexane-1,4-diamine], the remaining activity at 10 µM in assay [1] was 40%; in assay [2] it was 55%. Besides, the Ki in assay [3] was found to be 0.045 µM; in assay [4] it was 2.66 µM; in assay [5], 0.059 µM; in assay [6] it was 0.958 µM. For the same compound, the GI50 in assay [7] turned out to be 0.013 ± 0.002 µM.

For `N[C@H]1CC[C@H](Nc2ncc(Cl)c(-c3cnc4ccccn34)n2)CC1` [Compound 42, (1r,4r)-N^1-(5-chloro-4-(imidazo[1,2-a]pyridin-3-yl)pyrimidin-2-yl)cyclohexane-1,4-diamine], the remaining activity at 10 µM in assay [1] was 0%; in assay [2], 45%. In addition, the Ki in assay [3] came to 0.061 µM; in assay [4], 0.46 µM; in assay [5] it was 0.046 µM; in assay [6], 0.024 µM. The same compound registered a GI50 in assay [7] of 0.007 ± 0.001 µM.

Turning to `N[C@H]1CC[C@H](Nc2ncc(F)c(-c3cnc4cc(Cl)ccn34)n2)CC1` [Compound 43, (1r,4r)-N^1-(4-(7-Chloroimidazo[1,2-a]pyridin-3-yl)-5-fluoropyrimidin-2-yl)cyclohexane-1,4-diamine], the remaining activity at 10 µM was found to be 0% in assay [1]; 2% in assay [2]; 4% in assay [4]; 1% in assay [5]; 3% in assay [6]. Further, in assay [3], the Ki was determined as 0.008 µM. The compound also gave a GI50 in assay [7] of 0.004 ± 0.001 µM.

`N[C@H]1CC[C@H](Nc2ncc(F)c(-c3cnc4cc(-c5ccccc5)ccn34)n2)CC1` [Compound 44, (1r,4r)-N^1-(5-Fluoro-4-(7-phenylimidazo[1,2-a]pyridin-3-yl)pyrimidin-2-yl)cyclohexane-1,4-diamine]: the remaining activity at 10 µM worked out at 2% in assay [1]; 1% in assay [2]; 0% in assay [4]; 0% in assay [5]; 2% in assay [6]. In assay [3], the Ki worked out at 0.007 µM. Also, the concentration for 50% growth inhibition (GI50) in assay [7] was less than 0.001 µM.

As to `N[C@H]1CC[C@H](Nc2ncc(F)c(-c3cnc4cc(-c5cccnc5)ccn34)n2)CC1` [Compound 45, (1r,4r)-N^1-(5-Fluoro-4-(7-(pyridin-3-yl)imidazo[1,2-a]pyridin-3-yl)pyrimidin-2-yl)cyclohexane-1,4-diamine], the remaining activity at 10 µM in assay [1] worked out at 5%; in assay [2], 0%; in assay [4], 0%; in assay [5], 0%; in assay [6], 2%. Also, in assay [3], the Ki was found to be 0.006 µM. In assay [7], this compound gave a GI50 of less than 0.001 µM.

For `N[C@H]1CC[C@H](Nc2ncc(F)c(-c3cnc4cc(Nc5cccnc5)ccn34)n2)CC1` [Compound 46, (1r,4r)-N^1-(5-Fluoro-4-(7-(pyridin-3-ylamino)imidazo [1,2-a]pyridin-3-yl)pyrimidin-2-yl)cyclohexane-1,4-diamine], the remaining activity at 10 µM was determined as 0% in assay [1]; 1% in assay [2]; 0% in assay [4]; 0% in assay [5]; 3% in assay [6]. Also, the Ki in assay [3] was 0.004 µM. In assay [7], this compound displayed a GI50 of less than 0.001 µM.

Regarding `N[C@H]1CC[C@H](Nc2ncc(F)c(-c3cnc4ccc(-c5ccc(CN6CCOCC6)cc5)cn34)n2)CC1` [Compound 47, (1r,4r)-N^1-(5-Fluoro-4-(6-(4-(morpholinomethyl)phenyl)imidazo[1,2-a]pyridin-3-yl)pyrimidin-2-yl)cyclohexane-1,4-diamine], the remaining activity at 10 µM in assay [1] worked out at 4%; in assay [2] it was 16%; in assay [4] it was 5%; in assay [5], 2%. Further, the Ki is 0.004 µM in assay [3] and 0.075 µM in assay [6]. The compound further displayed a GI50 in assay [7] of 0.003 ± 0.001 µM.

For the compound `CN(C)S(=O)(=O)c1ccc(-c2ccc3ncc(-c4nc(N[C@H]5CC[C@H](N)CC5)ncc4F)n3c2)cc1` [Compound 48, 4-(3-(2-(((1r,4r)-4-Aminocyclohexyl)amino)-5-fluoropyrimidin-4-yl)imidazo[1,2-a]pyridin-6-yl)-N,N-dimethylbenzenesulfonamide], the remaining activity at 10 µM in assay [1] was found to be 4%; in assay [2], 45%; in assay [4], 13%; in assay [5] it was 3%; in assay [6], 8%. Moreover, in assay [3], the Ki was 0.004 µM. The GI50 in assay [7] came to 0.002 µM.

Consider `N[C@H]1CC[C@H](Nc2ncc(F)c(-c3cnc4ccc(NC(=O)c5ccc(F)cc5)cn34)n2)CC1` [Compound 51, N-(3-(2-(((1r,4r)-4-Aminocyclohexyl)amino)-5-fluoropyrimidin-4-yl)imidazo[1,2-a]pyridin-6-yl)-4-fluorobenzamide], for which the remaining activity at 10 µM in assay [1] stood at 0%; in assay [2] it was 22%; in assay [4], 4%; in assay [5] it was 4%; in assay [6] it was 6%. For the same compound, the Ki in assay [3] stood at 0.006 µM. The compound further registered a GI50 in assay [7] of 0.001 µM.

As for `N[C@H]1CC[C@H](Nc2ncc(F)c(-c3cnc4ccc(NC(=O)Cc5ccccc5)cn34)n2)CC1` [Compound 52, N-(3-(2-(((1r,4r)-4-Aminocyclohexyl)amino)-5-fluoropyrimidin-4-yl)imidazo[1,2-a]pyridin-6-yl)-2-phenylacetamide], the remaining activity at 10 µM in assay [1] was 4%; in assay [2] it was 21%; in assay [4], 6%; in assay [5], 7%; in assay [6], 6%. Also, the Ki in assay [3] came to 0.013 µM. In addition, in assay [7], growth was halved (GI50) at 0.008 ± 0.003 µM.

For the compound `Cc1cnc(N[C@H]2CC[C@H](N)CC2)nc1-c1cnc2cc(-c3ccccc3)ccn12` [Compound 53, (1r,4r)-N^1-(5-Methyl-4-(7-phenylimidazo[1,2-a]pyridin-3-yl)pyrimidin-2-yl)cyclohexane-1,4-diamine], the remaining activity at 10 µM came out at 0% in assay [1]; 0% in assay [2]; 18% in assay [4]; 3% in assay [5]; 5% in assay [6]. Further, the Ki in assay [3] turned out to be 0.049 µM. The same compound gave a GI50 in assay [7] of 0.002 ± 0.001 µM.

As for `Cc1cnc(N[C@H]2CC[C@H](N)CC2)nc1-c1cnc2cc(-c3cccnc3)ccn12` [Compound 54, (1r,4r)-N^1-(5-Methyl-4-(7-(pyridin-3-yl)imidazo[1,2-a]pyridin-3-yl)pyrimidin-2-yl)cyclohexane-1,4-diamine], the remaining activity at 10 µM in assay [1] was 0%; in assay [2], 0%; in assay [4] it was 29%; in assay [5] it was 5%; in assay [6], 6%. For the same compound, in assay [3], the Ki was found to be 0.11 µM. In addition, in assay [7], growth was halved (GI50) at 0.018 ± 0.004 µM.

Take `Cc1cnc(N[C@H]2CC[C@H](N)CC2)nc1-c1cnc2cc(Nc3cccnc3)ccn12` [Compound 55, (1r,4r)-N^1-(5-Methyl-4-(7-(pyridin-3-ylamino)imidazo [1,2-a]pyridin-3-yl)pyrimidin-2-yl)cyclohexane-1,4-diamine]: the remaining activity at 10 µM in assay [1] stood at 5%; in assay [2] it was 2%; in assay [4] it was 24%; in assay [5], 5%; in assay [6], 8%. In addition, the Ki in assay [3] amounted to 0.069 µM. In assay [7], this compound gave a GI50 of 0.558 ± 0.13 µM.

For orientation: Ki means the equilibrium dissociation constant of an inhibitor or competing ligand from its target. Broadly, the GI50 is the concentration at which growth is held to half of that of the control. A high value points to lower sensitivity of the cells.

(Values after patent publication US11111245B2, “Derivatives of N-cycloalkyl/heterocycloalkyl-4-(imidazo[1,2-a]pyridine)pyrimidin-2-amine as therapeutic agents” (Aucentra Therapeutics Pty Ltd, priority 2017, dated 2021).)
